Source: patent US10118935B2, “Melampomagnolide B dimers” (priority 2014, dated 2018)

How the values were obtained:
SK-MEL-2 = experiment: NCI 60 cell line five dose, Melanoma
HOP-92 [1] = experiment: NCI 60 cell line five dose, Non-Small Cell Lung Cancer
OVCAR-4 = experiment: NCI 60 cell line five dose, Ovarian Cancer
HOP-92 [2] = system: HOP-92
U251 [3] = experiment: NCI 60 cell line five dose, CNS Cancer
T-47D = experiment: NCI 60 cell line five dose, Breast Cancer
ACHN = experiment: NCI 60 cell line five dose, Renal Cancer
NCI-H322M [4] = experiment: NCI 60 cell line five dose, Non-Small Cell Lung Cancer
HT29 [5] = system: HT29
MCF7 = experiment: NCI 60 cell line five dose, Breast Cancer
NCI-H322M [6] = system: NCI-H322M
U251 [7] = system: U251
TK-10 [8] = experiment: NCI 60 cell line five dose, Renal Cancer
HT29 [9] = experiment: NCI 60 cell line five dose, Colon Cancer
TK-10 [10] = system: TK-10
HS 578T = experiment: NCI 60 cell line five dose, Breast Cancer; settings: HS 578T

## C=C1C(=O)O[C@H]2[C@H]1CC/C(COC(=O)CCC(=O)NCCCCCCCCNC(=O)CCC(=O)OC/C1=C/CC[C@@]3(C)O[C@H]3[C@H]3OC(=O)C(=C)[C@@H]3CC1)=C\CC[C@@]1(C)O[C@@H]21 [JVM 2-87, bis(((1aR,7aS,10aS,10bS,E)-1a-Methyl-8-methylene-9-oxo-1a,2,3,6,7,7a,8,9,10a,1b-decahydrooxireno[2′,3′:9,10]cyclodeca[1,2-b]furan-5-yl)methyl)4,4′-(octane-1,8-diylbis(azanediyl))bis(4-oxobutanoate)]
BT-549
  CC50: 5.12 µM
MDA-MB-468
  CC50: 21.3 µM
SK-MEL-2
  GI50: 2.25 µM
  TGI: 4.59 µM
OVCAR-5
  CC50: 7.31 µM
SR
  CC50: > 100 µM
SK-MEL-5
  CC50: 38.4 µM
HOP-92 [1]
  GI50: 1.58 µM
  TGI: 3.27 µM
COLO 205
  CC50: 7.28 µM
CCRF-CEM
  CC50: > 100 µM
OVCAR-4
  GI50: 1.64 µM
  TGI: 3.92 µM
HOP-92 [2]
  CC50: 6.77 µM
U251 [3]
  GI50: 3.03 µM
  TGI: 10.6 µM
NCI-H23
  CC50: 42.6 µM
HCT-15
  CC50: 43.2 µM
T-47D
  GI50: 1.51 µM
  TGI: 3.86 µM
NCI-H226
  CC50: 15.7 µM
SK-MEL-28
  CC50: 6.32 µM
SF-268
  CC50: 42.4 µM
UO-31
  CC50: 54 µM
DU-145
  CC50: 6.81 µM
ACHN
  GI50: 3.13 µM
  TGI: 10.9 µM
NCI-H322M [4]
  GI50: 16.3 µM
  TGI: 31.4 µM
HT29 [5]
  CC50: 5.92 µM
MCF7
  GI50: 0.77 µM
  TGI: 2.47 µM
SK-OV-3
  CC50: 47.9 µM
SN12C
  CC50: 53.8 µM
HCC-2998
  CC50: 63.6 µM
MOLT-4
  CC50: > 100 µM
NCI-H322M [6]
  CC50: 60.5 µM
U251 [7]
  CC50: 43 µM
SF-539
  CC50: 20.9 µM
LOX IMVI
  CC50: 5.56 µM
MDA-MB-435
  CC50: 7.58 µM
HCT-116
  CC50: 5.41 µM
TK-10 [8]
  GI50: 20.8 µM
  TGI: 3.94 µM
HT29 [9]
  GI50: 1.64 µM
  TGI: 3.12 µM
TK-10 [10]
  CC50: 7.46 µM
SW-620
  CC50: 7.2 µM
HS 578T
  GI50: 3.88 µM
  TGI: 29.5 µM

## C=C1C(=O)O[C@H]2[C@H]1CC/C(COC(=O)CCC(=O)NCCCCCCCCCNC(=O)CCC(=O)OC/C1=C/CC[C@@]3(C)O[C@H]3[C@H]3OC(=O)C(=C)[C@@H]3CC1)=C\CC[C@@]1(C)O[C@@H]21 [JVM 2-92, bis(((1aR,7aS,10aS,10bS,E)-1a-Methyl-8-methylene-9-oxo-1a,2,3,6,7,7a,8,9,10a,10b-decahydrooxireno[2′,3′:9,10]cyclodeca[1,2-b]furan-5-yl)methyl)4,4′-(nonane-1,9-diylbis(azanediyl))bis (4-oxobutanoate)]
BT-549
  CC50: 4.65 µM
MDA-MB-468
  CC50: 7.04 µM
SK-MEL-2
  GI50: 2.12 µM
  TGI: 4.15 µM
OVCAR-5
  CC50: 7.06 µM
SR
  CC50: > 100 µM
SK-MEL-5
  CC50: 9.37 µM
HOP-92 [1]
  GI50: 1.4 µM
  TGI: 3.05 µM
COLO 205
  CC50: 8.15 µM
CCRF-CEM
  CC50: > 100 µM
OVCAR-4
  GI50: 1.48 µM
  TGI: 3.46 µM
HOP-92 [2]
  CC50: 6.64 µM
U251 [3]
  GI50: 3.01 µM
  TGI: 9.25 µM
NCI-H23
  CC50: 18.5 µM
HCT-15
  CC50: 46 µM
T-47D
  GI50: 1.49 µM
  TGI: 4.48 µM
NCI-H226
  CC50: 8.6 µM
SK-MEL-28
  CC50: 6.22 µM
SF-268
  CC50: 42.4 µM
UO-31
  CC50: 45.6 µM
DU-145
  CC50: 5.78 µM
ACHN
  GI50: 2.1 µM
  TGI: 5.16 µM
NCI-H322M [4]
  GI50: 16.3 µM
  TGI: 31.6 µM
HT29 [5]
  CC50: 5.69 µM
MCF7
  GI50: 0.42 µM
  TGI: 1.85 µM
SK-OV-3
  CC50: 49.1 µM
SN12C
  CC50: 49.7 µM
HCC-2998
  CC50: 9.82 µM
MOLT-4
  CC50: > 100 µM
NCI-H322M [6]
  CC50: 61.3 µM
U251 [7]
  CC50: 44.7 µM
SF-539
  CC50: 9.95 µM
LOX IMVI
  CC50: 4.06 µM
MDA-MB-435
  CC50: 7.25 µM
HCT-116
  CC50: 4.97 µM
TK-10 [8]
  GI50: 1.78 µM
  TGI: 3.28 µM
HT29 [9]
  GI50: 1.33 µM
  TGI: 2.75 µM
TK-10 [10]
  CC50: 6.02 µM
SW-620
  CC50: 6.14 µM
HS 578T
  GI50: 2.99 µM
  TGI: 24.9 µM
